# Assay results as given in patent publication US5686486A, “4-hydroxy-benzopyran-2-ones and 4-hydroxy-cycloalkyl[b]pyran-2-ones useful to treat retroviral infections” (priority 1995, dated 1997).
# Like-named read-outs stand apart in the source and are kept apart here.
# Target: HIV-1 protease (Human immunodeficiency virus type 1 group M subtype B, UniProt P04585)
# Experiment: biochemical
# Method in brief: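 Percent inhibition derived from fluorescent cleavage product separated by filtration after streptavidin-bead capture of intact biotin/FITC substrate. Reaction: enzyme (10 μl, 0.1 μM stock) with substrate (20 μl, 0.2 μM stock) and compound, 1 h at room temperature in dark, pH 5.5 acetate buffer with 1.0 M NaCl and 0.05% NP-40.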
# [1] = dose 1.100 uM, read-out: HIV-1 Protease % Inhib
# [2] = dose 3.300 uM, read-out: HIV-1 Protease % Inhib
# [3] = dose 10.000 uM, read-out: HIV-1 Protease % Inhib
# [4] = dose 30.000 uM, read-out: HIV-1 Protease % Inhib
# [5] = read-out: HIV-1 Protease % Inhib, dose 0.123 uM
# [6] = read-out: HIV-1 Protease % Inhib, dose 0.370 uM
# [7] = read-out: HIV-1 Protease % Inhib, dose 1.100 uM
# [8] = read-out: HIV-1 Protease % Inhib, dose 3.300 uM
# [9] = read-out: HIV-1 Protease % Inhib, dose 10.000 uM
# [10] = read-out: HIV-1 Protease % Inhib, dose 30.000 uM
# [11] = read-out: HIV-1 Protease % Inhib
# [12] = dose 0.370 uM, read-out: HIV-1 Protease % Inhib
smiles,measurement,setting,value
"CC(=O)Nc1nc(C)c(S(=O)(=O)Nc2cccc(C(c3c(O)c4c(oc3=O)CCCCCC4)C3CC3)c2)s1 (stereo not shown) [Example 322, N-[5-[[[3-[Cyclopropyl(5,6,7,8,9,10-hexahydro-4-hydroxy-2-oxo-2H-cycloocta[b]pyran-3-yl)methyl]phenyl]amino]sulfonyl]-4-methyl-2-thiazolyl]-acetamide]",inhibition at 1.1 µM,[1],22.3%
same,inhibition at 3.3 µM,[2],61.1%
same,inhibition at 10 µM,[3],91.8%
same,inhibition at 30 µM,[4],106%
"O=c1oc2c(c(O)c1C(c1cccc(NS(=O)(=O)c3cccs3)c1)C1CC1)CCCCCC2 (stereo not shown) [Example 323, N-[3-[Cyclopropyl(5,6,7,8,9,10-hexahydro-4-hydroxy-2-oxo-2H-cycloocta[b]pyran-3-yl)methyl]phenyl]-2-thiophenesulfonamide]",inhibition at 0.123 µM,[5],62.8%
same,inhibition at 0.37 µM,[6],91.8%
same,inhibition at 1.1 µM,[7],100%
same,inhibition at 3.3 µM,[8],104%
same,inhibition at 10 µM,[9],118%
same,inhibition at 30 µM,[10],112%
"Cc1ccc(S(=O)(=O)Nc2cccc(C(c3c(O)c4c(oc3=O)CCCCCC4)C3CC3)c2)cc1 (stereo not shown) [Example 325, N-[3-[Cyclopropyl(5,6,7,8,9,10-hexahydro-4-hydroxy-2-oxo-2H-cycloocta[b]pyran-3-yl)methyl]phenyl]4-methyl-benzenesulfonamide]",inhibition at 0.123 µM,[5],59.8%
same,inhibition at 0.37 µM,[6],86.6%
same,inhibition at 1.1 µM,[7],95.6%
same,inhibition at 3.3 µM,[8],105%
same,inhibition at 10 µM,[9],115%
same,inhibition at 30 µM,[10],115%
"CCCCS(=O)(=O)Nc1cccc(C(c2c(O)c3c(oc2=O)CCCCCC3)C2CC2)c1 (stereo not shown) [Example 326, N-[3-[Cyclopropyl(5,6,7,8,9,10-hexahydro-4-hydroxy-2-oxo-2H-cycloocta[b]pyran-3-yl)methyl]phenyl]-1-butanesulfonamide]",inhibition at 0.123 µM,[5],51.6%
same,inhibition at 0.37 µM,[6],92.6%
same,inhibition at 1.1 µM,[7],102%
same,inhibition at 3.3 µM,[8],106%
same,inhibition at 10 µM,[9],114%
same,inhibition at 30 µM,[10],121%
"CC(C)S(=O)(=O)Nc1cccc(C(c2c(O)c3c(oc2=O)CCCCCC3)C2CC2)c1 (stereo not shown) [Example 328, N-[3-[Cyclopropyl(5,6,7,8,9,10-hexahydro-4-hydroxy-2-oxo-2H-cycloocta[b]pyran-3-yl)methyl]phenyl]-2-propanesulfonamide]",inhibition at 0.123 µM,[5],11.9%
same,inhibition at 0.37 µM,[6],46%
same,inhibition at 1.1 µM,[7],86.6%
same,inhibition at 3.3 µM,[8],106%
same,inhibition at 10 µM,[9],114%
same,inhibition at 30 µM,[10],111%
"Cc1cccc(C)c1S(=O)(=O)Nc1cccc(C(c2c(O)c3c(oc2=O)CCCCCC3)C2CC2)c1 (stereo not shown) [Example 329, N-[3-[Cyclopropyl(5,6,7,8,9,10-hexahydro-4-hydroxy-2-oxo-2H-cycloocta[b]pyran-3-yl)methyl]phenyl]-2,6-dimethyl-benzenesulfonamide]",inhibition at 0.37 µM,[11],10.2%
same,inhibition at 1.1 µM,[11],42.2%
same,inhibition at 3.3 µM,[11],75.3%
same,inhibition at 10 µM,[11],91.8%
same,inhibition at 30 µM,[11],102%
"Cc1ccccc1S(=O)(=O)Nc1cccc(C(c2c(O)c3c(oc2=O)CCCCCC3)C2CC2)c1 (stereo not shown) [Example 330, N-[3-[Cyclopropyl(5,6,7,8,9,10-hexahydro-4-hydroxy-2-oxo-2H-cycloocta[b]pyran-3-yl)methyl]phenyl]-2-methyl-benzenesulfonamide]",inhibition at 0.123 µM,[5],47.2%
same,inhibition at 0.37 µM,[6],83.8%
same,inhibition at 1.1 µM,[7],106%
same,inhibition at 3.3 µM,[8],109%
same,inhibition at 10 µM,[9],115%
same,inhibition at 30 µM,[10],106%
"COc1cccc(OC)c1S(=O)(=O)Nc1cccc(C(c2c(O)c3c(oc2=O)CCCCCC3)C2CC2)c1 (stereo not shown) [Example 334, N-[3-[Cyclopropyl(5,6,7,8,9,10-hexahydro-4-hydroxy-2-oxo-2H-cycloocta[b]pyran-3-yl)methyl]phenyl]-2,6-dimethoxy-benzenesulfonamide]",inhibition at 0.37 µM,[12],13.6%
same,inhibition at 1.1 µM,[1],42.3%
same,inhibition at 3.3 µM,[2],69%
same,inhibition at 10 µM,[3],87.6%
same,inhibition at 30 µM,[4],89.5%
"COc1ccc(S(=O)(=O)Nc2cccc(C(c3c(O)c4c(oc3=O)CCCCCC4)C3CC3)c2)cc1OC (stereo not shown) [Example 335, N-[3-[Cyclopropyl(5,6,7,8,9,10-hexahydro-4-hydroxy-2-oxo-2H-cycloocta[b]pyran-3-yl)methyl]phenyl]-3,4-dimethoxy-benzenesulfonamide]",inhibition at 0.123 µM,[5],48.7%
same,inhibition at 0.37 µM,[6],82.9%
same,inhibition at 1.1 µM,[7],90.3%
same,inhibition at 3.3 µM,[8],96.8%
same,inhibition at 10 µM,[9],96.5%
same,inhibition at 30 µM,[10],106%
"Cc1cccc(S(=O)(=O)Nc2cccc(C(c3c(O)c4c(oc3=O)CCCCCC4)C3CC3)c2)c1 (stereo not shown) [Example 336, N-[3-[Cyclopropyl(5,6,7,8,9,10-hexahydro-4-hydroxy-2-oxo-2H-cycloocta[b]pyran-3-yl)methyl]phenyl]-3-methyl-benzenesulfonamide]",inhibition at 0.123 µM,[5],73.5%
same,inhibition at 0.37 µM,[6],87.3%
same,inhibition at 1.1 µM,[7],93%
same,inhibition at 3.3 µM,[8],94.6%
same,inhibition at 10 µM,[9],103%
same,inhibition at 30 µM,[10],108%
"N#Cc1ccccc1S(=O)(=O)Nc1cccc(C(c2c(O)c3c(oc2=O)CCCCCC3)C2CC2)c1 (stereo not shown) [Example 339, 2-Cyano-N-[3-[cyclopropyl(5,6,7,8,9,10-hexahydro-4-hydroxy-2-oxo-2H-cycloocta[b]pyran-3-yl)methyl]phenyl]-benzenesulfonamide]",inhibition at 0.123 µM,[5],53.5%
same,inhibition at 0.37 µM,[6],81.3%
same,inhibition at 1.1 µM,[7],94.9%
same,inhibition at 3.3 µM,[8],99.2%
same,inhibition at 10 µM,[9],105%
same,inhibition at 30 µM,[10],99.8%
"CCCc1ccc(S(=O)(=O)Nc2cccc(C(c3c(O)c4c(oc3=O)CCCCCC4)C3CC3)c2)cc1 (stereo not shown) [Example 342, N-[3-[Cyclopropyl(5,6,7,8,9,10-hexahydro-4-hydroxy-2-oxo-2H-cycloocta[b]pyran-3-yl)methyl]phenyl]4-propyl-benzenesulfonamide]",inhibition at 0.123 µM,[5],42%
same,inhibition at 0.37 µM,[6],72.9%
same,inhibition at 1.1 µM,[7],88.2%
same,inhibition at 3.3 µM,[8],87.8%
same,inhibition at 10 µM,[9],108%
same,inhibition at 30 µM,[10],105%
"CCCCCCCCCCCCS(=O)(=O)Nc1cccc(C(c2c(O)c3c(oc2=O)CCCCCC3)C2CC2)c1 (stereo not shown) [Example 344, N-[3-[Cyclopropyl(5,6,7,8,9,10-hexahydro-4-hydroxy-2-oxo-2H-cycloocta[b]pyran-3-yl)methyl]phenyl]-1-dodecanesulfonamide]",inhibition at 1.1 µM,[1],11.8%
same,inhibition at 3.3 µM,[2],32.7%
same,inhibition at 10 µM,[3],63.2%
same,inhibition at 30 µM,[4],81.8%
"CC(C)c1ccc(S(=O)(=O)Nc2cccc(C(c3c(O)c4c(oc3=O)CCCCCC4)C3CC3)c2)cc1 (stereo not shown) [Example 345, N-[3-[Cyclopropyl(5,6,7,8,9,10-hexahydro-4-hydroxy-2-oxo-2H-cycloocta[b]pyran-3-yl)methyl]phenyl]-4-(1-methylethyl)-benzenesulfonamide]",inhibition at 0.123 µM,[5],50%
same,inhibition at 0.37 µM,[6],77%
same,inhibition at 1.1 µM,[7],90.4%
same,inhibition at 3.3 µM,[8],101%
same,inhibition at 10 µM,[9],105%
same,inhibition at 30 µM,[10],91.8%
"Nc1ccc(S(=O)(=O)Nc2cccc(C(c3c(O)c4c(oc3=O)CCCCCC4)C3CC3)c2)cc1 (stereo not shown) [Example 348 (First Title Compound), 4-Amino-N-[3-[cyclopropyl(5,6,7,8,9,10-hexahydro-4-hydroxy-2-oxo-2H-cycloocta[b]pyran-3-yl)methyl]phenyl]-benzenesulfonamide]",inhibition at 0.123 µM,[5],28.1%
same,inhibition at 0.37 µM,[6],80.7%
same,inhibition at 1.1 µM,[7],103%
same,inhibition at 3.3 µM,[8],108%
same,inhibition at 10 µM,[9],113%
same,inhibition at 30 µM,[10],109%
"C=CS(=O)(=O)Nc1cccc(C(c2c(O)c3c(oc2=O)CCCCC3)C2CC2)c1 (stereo not shown) [Example 363, N-[3-[Cyclopropyl(2,5,6,7,8,9-hexahydro-4-hydroxy-2-oxocyclohepta[b]pyran-3-yl)methyl]phenyl]-ethenesulfonamide]",inhibition at 1.1 µM,[1],21.5%
same,inhibition at 3.3 µM,[2],58.8%
same,inhibition at 10 µM,[3],84.8%
same,inhibition at 30 µM,[4],107%
"CCS(=O)(=O)Nc1cccc(C(c2c(O)c3c(oc2=O)CCCCC3)C2CC2)c1 (stereo not shown) [Example 365, N-[3-[Cyclopropyl(2,5,6,7,8,9-hexahydro-4-hydroxy-2-oxocyclohepta[b]pyran-3-yl)methyl]phenyl]-ethanesulfonamide]",inhibition at 0.123 µM,[5],11.7%
same,inhibition at 0.37 µM,[6],31.1%
same,inhibition at 1.1 µM,[7],65.3%
same,inhibition at 3.3 µM,[8],84.1%
same,inhibition at 10 µM,[9],94.5%
same,inhibition at 30 µM,[10],95.8%
"O=c1oc2c(c(O)c1C(c1cccc(N3CCCS3(=O)=O)c1)C1CC1)CCCCCC2 [Example 365B (First Title Compound), 2H-Cycloocta[b]pyran-2-one, 3-[cyclopropyl[3-(2-isothiazolidinyl)phenyl]methyl]-5,6,7,8,9,10-hexahydro-4-hydroxy-,S,S-dioxide]",inhibition at 10 µM,[3],83.8%
same,inhibition at 30 µM,[4],78.8%
"O=c1oc2c(c(O)c1C(c1cccc(NS(=O)(=O)CCCN3CCOCC3)c1)C1CC1)CCCCCC2 (stereo not shown) [Example 365B (Second Title Compound), N-[3-[Cyclopropyl(5,6,7,8,9,10-hexahydro-4-hydroxy-2-oxo-2H-cycloocta[b]pyran-3-yl)methyl]phenyl]-4-morpholinepropanesulfonamide]",inhibition at 0.123 µM,"dose 0.123 uM, read-out: HIV-1 Protease % Inhib",33.2%
same,inhibition at 0.37 µM,[12],68.2%
same,inhibition at 1.1 µM,[1],94%
same,inhibition at 3.3 µM,[2],87.3%
same,inhibition at 10 µM,[3],92.6%
same,inhibition at 30 µM,[4],89.1%
"O=c1oc2c(c(O)c1C(c1cccc(NC(=S)Nc3ccccc3)c1)C1CC1)CCCCCC2 (stereo not shown) [Example 366, Thiourea, N-[3-[cyclopropyl(5,6,7,8,9,10-hexahydro-4-hydroxy-2-oxo-2H-cycloocta[b]pyran-3-yl)methyl]phenyl]-N'-phenyl-]",inhibition at 1.1 µM,[1],40.3%
same,inhibition at 3.3 µM,[2],72.9%
same,inhibition at 10 µM,[3],92.2%
same,inhibition at 30 µM,[4],107%
